Measurements reported in article PMC10906247, “From Functional Fatty Acids to Potent and Selective Natural-Product-Inspired Mimetics via Conformational Profiling” (ACS Central Science, 2024).
Values joined by “and” are separate entries in the source; they are usually repeats but may differ in a detail not shown here. Equal values may be shown once. Read-outs that look alike come from different tables or passages of the source.

Assays:
[1] = target: T1, TLX ligand binding domain (Homo sapiens, UniProt Q9Y466); experiment: TLX ligand sensing assay (AlphaScreen, RIP140 NR box peptide recruitment); format: biochemical
T1 construct: purchased NovAliX SAS, Strasbourg, France

GPR40 (FFAR1) = GPR40 (FFAR1) (Homo sapiens, UniProt O14842); experiment: PathHunter β-arrestin assay (Eurofins Discovery), GPR40; format: cell-based; conditions: for EC50 / GPR40 max. efficacy: dose-response; for EC50: β-arrestin assay, read-out: GPR40 EC50 measured; for GPR40 max. efficacy: oleic acid = 100; for GPR40 potency relative to oleic acid: EC50 ratio vs control oleic acid
Method: (§1) With these compounds in hand, attention was directed at evaluating their properties as ligands to GPR40, GPR120,[24] and TLX. Initial profiling experiments were conducted targeting the GPCR targets at a single concentration (15 μM) in a commercially available β-arrestin assay.
(§2) Functional assays at GPR40 and GPR120 were conducted by Eurofins Discovery services using their PathHunter® b-Arrestin assay that monitors the activation of a GPCR in a homogenous, non-imaging assay format using a technology developed by DiscoverX called Enzyme Fragment Complementation (EFC) with b-galactosidase (b-Gal) as the functional reporter. b-Arrestin GPCR cell lines built on the principles of EFC are engineered to co-express the ProLinkTM (PK) tagged GPCR and the Enzyme Acceptor (EA) tagged b-Arrestin. Activation of the GPCR-PK induces b-Arrestin-EA recruitment, forcing complementation of the two b-galactosidase enzyme fragments (EA and PK). The resulting functional enzyme hydrolyzes substrate to generate chemiluminescent […]
(§3) Additional information can be found at: www.eurofinsdiscovery.com/solution/b-arrestin Below are dose-response curves generated from Eurofins Discovery services for activity of ligands depicted in Figure 6B at GPR40 (FFAR1) and GPR120. […]

GPR120 = target: T2, GPR120 (Homo sapiens, UniProt Q5NUL3); experiment: PathHunter β-arrestin assay (Eurofins Discovery), GPR120; format: cell-based; conditions: for EC50: β-arrestin assay, read-out: GPR120 EC50 measured; for GPR120 max. efficacy: oleic acid = 100
T2 sequence (Q5NUL3 1-361): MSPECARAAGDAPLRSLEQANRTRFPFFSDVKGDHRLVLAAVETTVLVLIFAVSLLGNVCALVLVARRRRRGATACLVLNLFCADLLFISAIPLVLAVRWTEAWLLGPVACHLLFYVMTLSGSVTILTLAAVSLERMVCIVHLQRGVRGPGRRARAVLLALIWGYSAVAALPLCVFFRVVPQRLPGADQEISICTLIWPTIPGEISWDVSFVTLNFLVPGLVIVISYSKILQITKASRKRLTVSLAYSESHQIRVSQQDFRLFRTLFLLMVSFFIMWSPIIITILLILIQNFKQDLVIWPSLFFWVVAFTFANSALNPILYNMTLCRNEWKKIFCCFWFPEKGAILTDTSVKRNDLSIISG
Method: as §1, §2, §3

[2] = Metabolic stability / intrinsic clearance in cryopreserved human hepatocytes
Method: To gain insight into potential metabolic issues, a preliminary assessment of 1-E and 3-C in a metabolic stability assay utilizing human hepatocytes was conducted.
7.1. ADME-Tox: In Vitro Metabolism
Intrinsic clearance (cr yopreserved hepatocytes, human)
Note: Unit of Clint is µ L/min/mg for microsomes, S9 and UGT assa ys; µL/min/pmol for CYP assays; µ L/min/Million cells for hepatocyte assays […]
8.1. Experimental Conditions
8.1.1. ADME-Tox: In Vitro Metabolism
8.2. Analysis and expression of results
8.2.1. ADME-Tox: In Vitro Metabolism
Intrinsic Clearance (microsomes, S9, cryopreserved hepatocytes, reco mbinant CYP, recombinant UGT) Metabolic stability, expressed as percent of the parent compound remaining , was calculated by comparing the peak area of the compound at the time point relative to that at time -0. The ha lf-life (T1/2) was estimated from the slope of the initial linear range of the logarithmic curve of compound remaining (%) vs. time, assu ming the first -order kinetics. The apparent intrinsic cleara nce (CLint, in µL/min/pmol, µL/min/mg or µL/min/Mcell ) was calculated according to the following formula: […]
T1/2*(mg protein/µL or million cells/µL or pmol CYP iso zyme/µL)

[3] = ALPHA normalized, supplement, read-out: TLX EC50 (dose-response curves)
[4] = maximal efficacy measured at 100 μM

T1 sequence (Q9Y466 155-383 limits assumed): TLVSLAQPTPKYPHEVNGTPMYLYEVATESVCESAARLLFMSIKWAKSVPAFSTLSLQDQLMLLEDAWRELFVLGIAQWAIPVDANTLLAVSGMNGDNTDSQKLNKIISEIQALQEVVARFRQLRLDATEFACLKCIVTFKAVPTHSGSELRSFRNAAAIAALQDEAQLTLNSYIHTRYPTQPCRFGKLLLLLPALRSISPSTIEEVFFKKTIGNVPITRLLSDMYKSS
GPR40 (FFAR1), sequence (O14842 whole entry): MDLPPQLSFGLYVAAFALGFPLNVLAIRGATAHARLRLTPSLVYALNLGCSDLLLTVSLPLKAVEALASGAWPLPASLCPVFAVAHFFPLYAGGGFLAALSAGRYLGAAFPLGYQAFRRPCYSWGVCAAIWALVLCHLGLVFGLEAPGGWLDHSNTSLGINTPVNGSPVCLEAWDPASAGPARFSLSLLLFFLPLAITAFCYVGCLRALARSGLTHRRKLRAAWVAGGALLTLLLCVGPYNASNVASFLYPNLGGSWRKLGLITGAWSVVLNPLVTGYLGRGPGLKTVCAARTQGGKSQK

Row | EC50 [1, 3] | EC50 (GPR40 (FFAR1)) | GPR40 max. efficacy (GPR40 (FFAR1)) | EC50 (GPR120; dose-response) | SMILES | further results
1 | 2180 nM |  |  |  | CCCCCCCCCC/C=C(/C)C/C(C)=C/[C@H](C)CC(=O)O [1-A] | 
2 | 2360 nM |  |  |  | CCCCCCCCCC/C=C(/C)C/C(C)=C/[C@@H](C)CC(=O)O [1-B] | 
3 | 3120 nM | 7800 nM | 109% | > 51000 nM | CCCCCCCCC[C@@H](C)/C=C(/C)C/C(C)=C/[C@H](C)CC(=O)O [1-C] | GPR120 max. efficacy (GPR120; [4]): 29%
4 | 3170 nM |  |  |  | CCCCCCCCC[C@@H](C)/C=C(/C)C/C(C)=C/[C@@H](C)CC(=O)O [1-D] | 
5 | 1680 nM | 2600 nM | 75% | > 47000 nM | CCCCCCCCC[C@H](C)/C=C(/C)C/C(C)=C/[C@H](C)CC(=O)O [1-E] | GPR40 potency relative to oleic acid (GPR40 (FFAR1)): 14 times; Half-life, single replicates (1st, 2nd, 3rd) ([2]; human hepatocytes, 1.0E-06 M, listed as GCM/LEM 1-E): 3.445 h and 2.168 h and 4.453 h; hepatocyte CLint at 1 µM ([2]; human, cryopreserved human hepatocytes): 5.4 µL/min/1e6 cells; half-life at 1 µM ([2]; human, cryopreserved human hepatocytes, Half-life (mean), human hepatocytes, 1.0E-06 M): 3.35 h; % Compound Remaining, mean ([2]; incubation 30 minutes, 1.0E-06 M): 96 % remaining; % Compound Remaining, single replicates (1st, 2nd, 3rd) ([2]; incubation 30 minutes, 1.0E-06 M, listed as GCM/LEM 1-E): 99.4 % remaining and 103.0 % remaining and 86.6 % remaining; % Compound Remaining, mean ([2]; incubation 60 minutes, 1.0E-06 M): 98 % remaining; % Compound Remaining, single replicates (1st, 2nd, 3rd) ([2]; incubation 60 minutes, 1.0E-06 M, listed as GCM/LEM 1-E): 83.9 % remaining and 103.8 % remaining and 106.9 % remaining; % Compound Remaining, mean ([2]; incubation 90 minutes, 1.0E-06 M): 85 % remaining; % Compound Remaining, single replicates (1st, 2nd, 3rd) ([2]; incubation 90 minutes, 1.0E-06 M, listed as GCM/LEM 1-E): 79.1 % remaining and 80.4 % remaining and 96.1 % remaining; % Compound Remaining, mean ([2]; incubation 120 minutes, 1.0E-06 M): 61 % remaining; % Compound Remaining, single replicates (1st, 2nd, 3rd) ([2]; incubation 120 minutes, 1.0E-06 M, listed as GCM/LEM 1-E): 67.8 % remaining and 50.9 % remaining and 64.3 % remaining; GPR120 max. efficacy (GPR120; [4]): 32%
6 | 1870 nM | 7200 nM | 123% | > 42000 nM | CCCCCCCCC[C@H](C)/C=C(/C)C/C(C)=C/[C@@H](C)CC(=O)O [1-F] | GPR120 max. efficacy (GPR120; [4]): 31%
7 | 2510 nM |  |  |  | CCCCCCCC/C=C(/C)C/C(C)=C/[C@H](C)CCCC(=O)O [2-A] | 
8 | 3080 nM |  |  |  | CCCCCCCC/C=C(/C)C/C(C)=C/[C@@H](C)CCCC(=O)O [2-B] | 
9 | 1510 nM | 6200 nM and ~5000 nM | 95% | 2600 nM | CCCCCCC[C@@H](C)/C=C(/C)C/C(C)=C/[C@H](C)CCCC(=O)O [2-C] | GPR40 potency relative to oleic acid (GPR40 (FFAR1)): ~7 times; GPR120 max. efficacy (GPR120; dose-response): 31%
10 | 1320 nM | 5500 nM and ~5000 nM | 87% | ≥ 7500 nM and 1000 to 7000 nM | CCCCCCC[C@@H](C)/C=C(/C)C/C(C)=C/[C@@H](C)CCCC(=O)O [2-D] | GPR40 potency relative to oleic acid (GPR40 (FFAR1)): ~7 times; GPR120 max. efficacy (GPR120; [4]): 44%
11 | 1310 nM | 5000 nM and ~5000 nM | 68% | 1100 nM | CCCCCCC[C@H](C)/C=C(/C)C/C(C)=C/[C@H](C)CCCC(=O)O [2-E] | GPR40 potency relative to oleic acid (GPR40 (FFAR1)): ~7 times; selectivity for GPR120 (GPR120; GPR120 over GPR40): 5 fold; GPR120 max. efficacy (GPR120; dose-response): 35%
12 | 1560 nM |  |  |  | CCCCCCC[C@H](C)/C=C(/C)C/C(C)=C/[C@@H](C)CCCC(=O)O [2-F] | 
13 | 1560 nM |  |  |  | CCCCCC/C=C(/C)C/C(C)=C/[C@H](C)CCCCCC(=O)O [3-A] | 
14 | 934 nM |  |  |  | CCCCCC/C=C(/C)C/C(C)=C/[C@@H](C)CCCCCC(=O)O [3-B] | EC50 ([1]; coactivator recruitment, read-out: TLX EC50): 900 nM; TLX max. efficacy ([1]; oleic acid = 100): 79%
